Source: PubChem BioAssay AID2060488 (Molecular Pharmacology Branch, DTP, NCI, 2025)
pIC50: −log10 of the molar value.

Tested on: 966289-007-R4-J1-PDC complex spheroid viability
Experiment: Anticancer human tumor 966289-007-R4-J1-PDC patient-derived pancreatic adenocarcinoma cell line growth inhibition [GQUAD]
Conditions: for pIC50: curve of first compound; for viability, T/C: stronger effect = lower value
In short: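 Viability of tumor cells grown as complex spheroids with endothelial and stromal cells, exposed to drug combinations. Top concentration at or near clinical Cmax (else 10 microM), diluted in half-log increments.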

[1] = second compound 0.0316 µM, first compound 0.000999 µM
[2] = second compound 0.0316 µM, first compound 0.00316 µM
[3] = second compound 0.0316 µM, first compound 0.00999 µM
[4] = second compound 0.0316 µM, first compound 0.0316 µM
[5] = second compound 0.0316 µM, first compound 0.0999 µM
[6] = second compound 0.0316 µM, first compound 0.316 µM
[7] = second compound 0.1 µM, first compound 0.000999 µM
[8] = second compound 0.1 µM, first compound 0.00316 µM
[9] = second compound 0.1 µM, first compound 0.00999 µM
[10] = second compound 0.1 µM, first compound 0.0316 µM
[11] = second compound 0.1 µM, first compound 0.0999 µM
[12] = second compound 0.1 µM, first compound 0.316 µM
[13] = second compound 0.316 µM, first compound 0.000999 µM
[14] = second compound 0.316 µM, first compound 0.00316 µM
[15] = second compound 0.316 µM, first compound 0.00999 µM
[16] = second compound 0.316 µM, first compound 0.0316 µM
[17] = second compound 0.316 µM, first compound 0.0999 µM
[18] = second compound 0.316 µM, first compound 0.316 µM
[19] = second compound 1 µM, first compound 0.000999 µM
[20] = second compound 1 µM, first compound 0.00316 µM
[21] = second compound 1 µM, first compound 0.00999 µM
[22] = second compound 1 µM, first compound 0.0316 µM
[23] = second compound 1 µM, first compound 0.0999 µM
[24] = second compound 1 µM, first compound 0.316 µM
[25] = second compound 3.16 µM, first compound 0.000999 µM
[26] = second compound 3.16 µM, first compound 0.00316 µM
[27] = second compound 3.16 µM, first compound 0.00999 µM
[28] = second compound 3.16 µM, first compound 0.0316 µM
[29] = second compound 3.16 µM, first compound 0.0999 µM
[30] = second compound 3.16 µM, first compound 0.316 µM
[31] = second compound 10 µM, first compound 0.000999 µM
[32] = second compound 10 µM, first compound 0.00316 µM
[33] = second compound 10 µM, first compound 0.00999 µM
[34] = second compound 10 µM, first compound 0.0316 µM
[35] = second compound 10 µM, first compound 0.0999 µM
[36] = second compound 10 µM, first compound 0.316 µM
[37] = second compound 0.0316 µM, first compound 0.1 µM
[38] = second compound 0.0316 µM, first compound 1 µM
[39] = second compound 0.0316 µM, first compound 3.16 µM
[40] = second compound 0.0316 µM, first compound 10 µM
[41] = second compound 0.1 µM, first compound 0.1 µM
[42] = second compound 0.1 µM, first compound 1 µM
[43] = second compound 0.1 µM, first compound 3.16 µM
[44] = second compound 0.1 µM, first compound 10 µM
[45] = second compound 0.316 µM, first compound 0.1 µM
[46] = second compound 0.316 µM, first compound 1 µM
[47] = second compound 0.316 µM, first compound 3.16 µM
[48] = second compound 0.316 µM, first compound 10 µM
[49] = second compound 1 µM, first compound 0.1 µM
[50] = second compound 1 µM, first compound 1 µM
[51] = second compound 1 µM, first compound 3.16 µM
[52] = second compound 1 µM, first compound 10 µM
[53] = second compound 3.16 µM, first compound 0.1 µM
[54] = second compound 3.16 µM, first compound 1 µM
[55] = second compound 3.16 µM, first compound 3.16 µM
[56] = second compound 3.16 µM, first compound 10 µM
[57] = second compound 10 µM, first compound 0.1 µM
[58] = second compound 10 µM, first compound 1 µM
[59] = second compound 10 µM, first compound 3.16 µM
[60] = second compound 10 µM, first compound 10 µM
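Also: spheroids exposed to the agents for seven days before readout.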
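For viability, T/C in this document: percent viability relative to DMSO vehicle control wells taken as 100%.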

## CC[C@@]1(O)C(=O)OCc2c1cc1n(c2=O)Cc2cc3c(CN(C)C)c(O)ccc3nc2-1 + Cc1cnc(CNC(=O)c2c(=O)c3ccc(N4CCCN(C)CC4)nc3n3c2sc2ccccc23)cn1
Second compound 0.0316 µM
  pIC50: 7.83
Second compound 0.1 µM
  pIC50: > 9.00
Second compound 0.316 µM
  pIC50: > 9.00
Second compound 1 µM
  pIC50: > 9.00
Second compound 3.16 µM
  pIC50: > 9.00
Second compound 10 µM
  pIC50: > 9.00
[1]
  viability, T/C: 114%
[2]
  viability, T/C: 101%
[3]
  viability, T/C: 70.2%
[4]
  viability, T/C: 11%
[5]
  viability, T/C: 0.58%
[6]
  viability, T/C: 0.79%
[7]
  viability, T/C: 37.3%
[8]
  viability, T/C: 28.6%
[9]
  viability, T/C: 16.8%
[10]
  viability, T/C: 3.15%
[11]
  viability, T/C: 0.77%
[12]
  viability, T/C: 0.75%
[13]
  viability, T/C: 9.34%
[14]
  viability, T/C: 13.5%
[15]
  viability, T/C: 8.56%
[16]
  viability, T/C: 2.61%
[17]
  viability, T/C: 0.93%
[18]
  viability, T/C: 0.49%
[19]
  viability, T/C: 5.94%
[20]
  viability, T/C: 5.56%
[21]
  viability, T/C: 4.48%
[22]
  viability, T/C: 1.71%
[23]
  viability, T/C: 0.92%
[24]
  viability, T/C: 0.68%
[25]
  viability, T/C: 3.9%
[26]
  viability, T/C: 3.89%
[27]
  viability, T/C: 3.05%
[28]
  viability, T/C: 0.13%
[29]
  viability, T/C: 0.08%
[30]
  viability, T/C: 0.07%
[31]
  viability, T/C: 0.03%
[32]
  viability, T/C: 0.08%
[33]
  viability, T/C: 0.12%
[34]
  viability, T/C: 0.09%
[35]
  viability, T/C: 0.3%
[36]
  viability, T/C: 0.11%

## CCc1c2c(nc3ccc(O)cc13)-c1cc3c(c(=O)n1C2)COC(=O)[C@]3(O)CC + Cc1cnc(CNC(=O)c2c(=O)c3ccc(N4CCCN(C)CC4)nc3n3c2sc2ccccc23)cn1
Second compound 0.0316 µM
  pIC50: > 9.00
Second compound 0.1 µM
  pIC50: > 9.00
Second compound 0.316 µM
  pIC50: > 9.00
Second compound 1 µM
  pIC50: > 9.00
Second compound 3.16 µM
  pIC50: > 9.00
Second compound 10 µM
  pIC50: > 9.00
[1]
  viability, T/C: 5.02%
[2]
  viability, T/C: 0.7%
[3]
  viability, T/C: 0.49%
[4]
  viability, T/C: 0.4%
[5]
  viability, T/C: 0.35%
[6]
  viability, T/C: 0.36%
[7]
  viability, T/C: 2.67%
[8]
  viability, T/C: 0.71%
[9]
  viability, T/C: 1.06%
[10]
  viability, T/C: 0.42%
[11]
  viability, T/C: 0.35%
[12]
  viability, T/C: 0.46%
[13]
  viability, T/C: 2.26%
[14]
  viability, T/C: 0.87%
[15]
  viability, T/C: 0.52%
[16]
  viability, T/C: 0.5%
[17]
  viability, T/C: 0.79%
[18]
  viability, T/C: 0.41%
[19]
  viability, T/C: 1.23%
[20]
  viability, T/C: 0.79%
[21]
  viability, T/C: 0.82%
[22]
  viability, T/C: 0.08%
[23]
  viability, T/C: 0.63%
[24]
  viability, T/C: 0.12%
[25]
  viability, T/C: 0.43%
[26]
  viability, T/C: 0.09%
[27]
  viability, T/C: 0.06%
[28]
  viability, T/C: 0.05%
[29]
  viability, T/C: 0.12%
[30]
  viability, T/C: 0.09%
[31]
  viability, T/C: 0.03%
[32]
  viability, T/C: 0.07%
[33]
  viability, T/C: 0.08%
[34]
  viability, T/C: 0.07%
[35]
  viability, T/C: 1.27%
[36]
  viability, T/C: 0.1%

## COc1cc(C2c3cc4c(cc3C(OC3OC5COC(C)OC5C(O)C3O)C3COC(=O)C23)OCO4)cc(OC)c1O (stereo not drawn) + Cc1cnc(CNC(=O)c2c(=O)c3ccc(N4CCCN(C)CC4)nc3n3c2sc2ccccc23)cn1
Second compound 0.0316 µM
  pIC50: 6.96
Second compound 0.1 µM
  pIC50: > 7.50
Second compound 0.316 µM
  pIC50: > 7.50
Second compound 1 µM
  pIC50: > 7.50
Second compound 3.16 µM
  pIC50: > 7.50
Second compound 10 µM
  pIC50: > 7.50
[4]
  viability, T/C: 88%
[37]
  viability, T/C: 53.8%
[6]
  viability, T/C: 10.1%
[38]
  viability, T/C: 2.94%
[39]
  viability, T/C: 2.18%
[40]
  viability, T/C: 0.59%
[10]
  viability, T/C: 29.7%
[41]
  viability, T/C: 19.7%
[12]
  viability, T/C: 8.71%
[42]
  viability, T/C: 3.16%
[43]
  viability, T/C: 1.36%
[44]
  viability, T/C: 0.71%
[16]
  viability, T/C: 10.3%
[45]
  viability, T/C: 9.3%
[18]
  viability, T/C: 5.22%
[46]
  viability, T/C: 3.25%
[47]
  viability, T/C: 1.25%
[48]
  viability, T/C: 1.38%
[22]
  viability, T/C: 6.49%
[49]
  viability, T/C: 6.05%
[24]
  viability, T/C: 4.38%
[50]
  viability, T/C: 2.66%
[51]
  viability, T/C: 1.27%
[52]
  viability, T/C: 0.48%
[28]
  viability, T/C: 4.76%
[53]
  viability, T/C: 4.96%
[30]
  viability, T/C: 2.85%
[54]
  viability, T/C: 0.6%
[55]
  viability, T/C: 0.46%
[56]
  viability, T/C: 0.09%
[34]
  viability, T/C: 0.03%
[57]
  viability, T/C: 0.07%
[36]
  viability, T/C: 0.09%
[58]
  viability, T/C: 0.06%
[59]
  viability, T/C: 0.12%
[60]
  viability, T/C: 0.12%

## COc1cccc2c1C(=O)c1c(O)c3c(c(O)c1C2=O)CC(O)(C(=O)CO)CC3OC1CC(N)C(O)C(C)O1 (stereo not drawn) + Cc1cnc(CNC(=O)c2c(=O)c3ccc(N4CCCN(C)CC4)nc3n3c2sc2ccccc23)cn1
Second compound 0.0316 µM
  pIC50: > 7.50
Second compound 0.1 µM
  pIC50: > 7.50
Second compound 0.316 µM
  pIC50: > 7.50
Second compound 1 µM
  pIC50: > 7.50
Second compound 3.16 µM
  pIC50: > 7.50
Second compound 10 µM
  pIC50: > 7.50
[4]
  viability, T/C: 43.6%
[37]
  viability, T/C: 6.62%
[6]
  viability, T/C: 2.17%
[38]
  viability, T/C: 0.54%
[39]
  viability, T/C: 0.2%
[40]
  viability, T/C: 0.39%
[10]
  viability, T/C: 14.1%
[41]
  viability, T/C: 7.19%
[12]
  viability, T/C: 2.36%
[42]
  viability, T/C: 0.41%
[43]
  viability, T/C: 0.24%
[44]
  viability, T/C: 0.54%
[16]
  viability, T/C: 8.14%
[45]
  viability, T/C: 4.76%
[18]
  viability, T/C: 1.77%
[46]
  viability, T/C: 0.41%
[47]
  viability, T/C: 0.17%
[48]
  viability, T/C: 0.26%
[22]
  viability, T/C: 4.98%
[49]
  viability, T/C: 3.35%
[24]
  viability, T/C: 1.44%
[50]
  viability, T/C: 0.09%
[51]
  viability, T/C: 0.13%
[52]
  viability, T/C: 0.32%
[28]
  viability, T/C: 3.68%
[53]
  viability, T/C: 1.92%
[30]
  viability, T/C: 0.11%
[54]
  viability, T/C: 0.05%
[55]
  viability, T/C: 0.1%
[56]
  viability, T/C: 0.1%
[34]
  viability, T/C: 0.03%
[57]
  viability, T/C: 0.08%
[36]
  viability, T/C: 0.1%
[58]
  viability, T/C: 0.07%
[59]
  viability, T/C: 0.16%
[60]
  viability, T/C: 0.24%
